Our source for the IC50 values is ChEMBL document CHEMBL5360618, “PepScaf: Harnessing Machine Learning with In Vitro Selection toward De Novo Macrocyclic Peptides against IL-17C/IL-17RE Interaction” (J Med Chem, 2023).

SMILES strings stand for the structures. Positions of bridges follow the written chain, without caps; N, C: chain ends. Non-standard residues stand in square brackets, D forms with d. Residues, ends and D or L forms follow the SMILES beside them. Ala(imidazol-2-yl) = N[C@@H](Cc1ncc[nH]1)C(=O)O

For the experiment, the target named is T1, IL17-RE-IL-17C (Homo sapiens, UniProt Q8NFR9+Q9P0M4).
T1 sequence (Q9P0M4 whole entry): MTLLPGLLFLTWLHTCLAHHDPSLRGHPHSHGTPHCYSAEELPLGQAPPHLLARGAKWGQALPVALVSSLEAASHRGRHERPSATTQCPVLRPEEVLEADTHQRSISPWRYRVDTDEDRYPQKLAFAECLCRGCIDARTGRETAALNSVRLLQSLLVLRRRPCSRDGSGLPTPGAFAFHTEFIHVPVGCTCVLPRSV
T1 sequence (Q8NFR9 whole entry): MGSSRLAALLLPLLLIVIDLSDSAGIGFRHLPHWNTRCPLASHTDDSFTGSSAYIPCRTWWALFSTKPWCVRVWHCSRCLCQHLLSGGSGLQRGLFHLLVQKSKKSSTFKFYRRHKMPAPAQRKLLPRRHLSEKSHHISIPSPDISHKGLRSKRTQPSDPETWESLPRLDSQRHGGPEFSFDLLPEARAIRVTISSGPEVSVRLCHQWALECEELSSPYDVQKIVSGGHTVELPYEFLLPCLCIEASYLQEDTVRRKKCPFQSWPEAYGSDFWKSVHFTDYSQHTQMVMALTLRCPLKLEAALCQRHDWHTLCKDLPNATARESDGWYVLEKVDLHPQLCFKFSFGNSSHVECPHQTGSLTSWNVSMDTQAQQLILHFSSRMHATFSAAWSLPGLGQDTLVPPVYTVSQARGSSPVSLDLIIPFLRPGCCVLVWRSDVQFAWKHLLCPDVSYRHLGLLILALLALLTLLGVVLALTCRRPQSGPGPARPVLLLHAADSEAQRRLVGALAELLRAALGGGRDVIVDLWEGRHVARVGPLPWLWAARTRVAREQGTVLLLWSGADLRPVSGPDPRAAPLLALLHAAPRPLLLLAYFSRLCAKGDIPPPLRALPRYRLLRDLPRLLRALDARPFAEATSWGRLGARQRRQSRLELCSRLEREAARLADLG
Nature of the experiment: Inhibition of IL-17C/IL-17RE interaction (unknown origin) incubated for 1.5 hrs by ELISA method. Format: protein-complex assay.
As to `CC(C)C[C@@H]1NC(=O)[C@H](CC(N)=O)NC(=O)CNC(=O)[C@H](Cc2ccc(O)cc2)NC(=O)[C@H](CC(C)C)NC(=O)[C@H](CO)NC(=O)[C@H](C(C)C)NC(=O)[C@H](Cc2ccc(O)cc2)NC(=O)[C@H](Cc2ccc(O)cc2)NC(=O)[C@H](CCC(N)=O)NC(=O)[C@H](Cc2c[nH]cn2)NC(=O)[C@H](Cc2ccc(O)cc2)NC(=O)CSC[C@@H](C(=O)NCC(N)=O)NC(=O)CNC1=O` ({CH2CO}-YHQYYVSLYGNLGCG-NH2; thioether N-14), the 50% inhibitory concentration (IC50) amounted to 10.4 nM.

In the case of `CC(C)C[C@@H]1NC(=O)[C@H](CO)NC(=O)CNC(=O)[C@H](Cc2ccc(O)cc2)NC(=O)[C@H](CC(C)C)NC(=O)[C@H](CO)NC(=O)[C@H](C(C)C)NC(=O)[C@H](Cc2ccc(O)cc2)NC(=O)[C@H](Cc2ccc(O)cc2)NC(=O)[C@H](CCC(N)=O)NC(=O)[C@H](Cc2c[nH]cn2)NC(=O)[C@H](Cc2ccc(O)cc2)NC(=O)CSC[C@@H](C(=O)NCC(N)=O)NC(=O)CNC1=O` ({CH2CO}-YHQYYVSLYGSLGCG-NH2; thioether N-14), the half-inhibitory concentration (IC50) is 8.1 nM.

In the case of `CC(C)C[C@@H]1NC(=O)[C@H](CO)NC(=O)CNC(=O)[C@H](Cc2ccc(O)cc2)NC(=O)[C@H](CC(C)C)NC(=O)[C@H](CO)NC(=O)[C@H](CCC(N)=O)NC(=O)[C@H](Cc2ccc(O)cc2)NC(=O)[C@H](Cc2ccc(O)cc2)NC(=O)[C@H](C(C)C)NC(=O)[C@H](Cc2c[nH]cn2)NC(=O)[C@H](Cc2ccc(O)cc2)NC(=O)CSC[C@@H](C(=O)NCC(N)=O)NC(=O)CNC1=O` ({CH2CO}-YHVYYQSLYGSLGCG-NH2; thioether N-14), the IC50 stood at 7.9 nM. This IC50 and that of the compound before are within 1.5-fold of each other.

`CC(C)C[C@@H]1NC(=O)[C@H](CO)NC(=O)CNC(=O)[C@H](Cc2ccc(O)cc2)NC(=O)[C@H](CC(C)C)NC(=O)[C@H](CO)NC(=O)[C@H](CCCNC(=N)N)NC(=O)[C@H](Cc2ccc(O)cc2)NC(=O)[C@H](Cc2ccc(O)cc2)NC(=O)[C@H](C(C)C)NC(=O)[C@H](Cc2cnc[nH]2)NC(=O)[C@H](Cc2ccc(O)cc2)NC(=O)CSC[C@@H](C(=O)NCC(N)=O)NC(=O)CNC1=O` ({CH2CO}-YHVYYRSLYGSLGCG-NH2; thioether N-14) showed an IC50 of 5.4 nM.

Compound `CC(C)C[C@@H]1NC(=O)[C@H](CO)NC(=O)[C@H](Cc2ccc(O)cc2)NC(=O)[C@H](Cc2ccc(O)cc2)NC(=O)[C@H](Cc2ccc(O)cc2)NC(=O)[C@H](C(C)C)NC(=O)[C@H](Cc2c[nH]cn2)NC(=O)[C@H](Cc2ccc(O)cc2)NC(=O)CSC[C@@H](C(=O)NCC(N)=O)NC(=O)CNC(=O)[C@H](CC(C)C)NC(=O)[C@@H]2CCCN2C(=O)CNC(=O)[C@H](Cc2ccc(O)cc2)NC1=O` ({CH2CO}-YHVYYYSLYGPLGCG-NH2; thioether N-14) displayed an IC50 of 9 nM.

`CC(C)C[C@@H]1NC(=O)[C@H](CO)NC(=O)CNC(=O)[C@H](Cc2ccc(O)cc2)NC(=O)[C@H](CC(C)C)NC(=O)[C@H](CO)NC(=O)[C@H](Cc2ccc(O)cc2)NC(=O)[C@H](Cc2ccc(O)cc2)NC(=O)[C@H](Cc2ccc(O)cc2)NC(=O)[C@H](C(C)C)NC(=O)[C@H](Cc2c[nH]cn2)NC(=O)[C@H](Cc2ccc(O)cc2)NC(=O)CSC[C@@H](C(=O)NCC(N)=O)NC(=O)CNC1=O` ({CH2CO}-YHVYYYSLYGSLGCG-NH2; thioether N-14) yielded an IC50 of 3.3 nM.

As for `CC[C@H](C)[C@@H]1NC(=O)[C@H](CO)NC(=O)[C@H](Cc2ccc(O)cc2)NC(=O)[C@H](Cc2ccc(O)cc2)NC(=O)[C@H]([C@@H](C)CC)NC(=O)[C@H](Cc2c[nH]cn2)NC(=O)[C@H](CC(N)=O)NC(=O)[C@H](Cc2ccccc2)NC(=O)[C@H](Cc2ccccc2)NC(=O)[C@H](CCC(N)=O)NC(=O)[C@H](CC(=O)O)NC(=O)[C@H]([C@@H](C)CC)NC(=O)[C@H](Cc2ccc(O)cc2)NC(=O)CSC[C@@H](C(=O)NCC(N)=O)NC1=O` ({CH2CO}-YIDQFFNHIYYSICG-NH2; thioether N-14), the IC50 was determined as 14700 nM.

`CC[C@H](C)[C@@H]1NC(=O)[C@H](CO)NC(=O)[C@H](Cc2ccc(O)cc2)NC(=O)[C@H]([C@@H](C)CC)NC(=O)[C@H]([C@@H](C)O)NC(=O)[C@H](CC(C)C)NC(=O)[C@H](CC(=O)O)NC(=O)[C@H]([C@@H](C)CC)NC(=O)[C@H](C(C)C)NC(=O)[C@H](Cc2ccc(O)cc2)NC(=O)[C@H](CC(=O)O)NC(=O)[C@H](CCCCN)NC(=O)[C@H](Cc2ccc(O)cc2)NC(=O)CSC[C@@H](C(=O)NCC(N)=O)NC1=O` ({CH2CO}-YKDYVIDLTIYSICG-NH2; thioether N-14) came in with an IC50 greater than 30000 nM.

Take `CC(C)C[C@@H]1NC(=O)[C@H](CC(C)C)NC(=O)[C@H](CO)NC(=O)[C@H](CCC(=O)O)NC(=O)[C@H](CC(C)C)NC(=O)[C@H](Cc2ccc(O)cc2)NC(=O)CSC[C@@H](C(=O)NCC(N)=O)NC(=O)[C@H](Cc2ccc(O)cc2)NC(=O)[C@H](Cc2ccc(O)cc2)NC(=O)[C@H](CC(N)=O)NC(=O)[C@H](CC(N)=O)NC(=O)[C@H](CO)NC(=O)CNC1=O` ({CH2CO}-YLESLLGSNNYYCG-NH2; thioether N-13): the IC50 was greater than 30000 nM.

For the compound `CC[C@H](C)[C@@H]1NC(=O)[C@H](CCCNC(=N)N)NC(=O)[C@H](Cc2ccc(O)cc2)NC(=O)[C@H](Cc2ccc(O)cc2)NC(=O)[C@H](Cc2c[nH]cn2)NC(=O)[C@H](CCC(N)=O)NC(=O)[C@H](Cc2ccc(O)cc2)NC(=O)CSC[C@@H](C(=O)NCC(N)=O)NC(=O)CNC(=O)[C@H](CC(C)C)NC(=O)[C@H](CCC(=O)O)NC(=O)CNC(=O)[C@H](Cc2ccc(O)cc2)NC(=O)[C@H](CC(C)C)NC1=O` ({CH2CO}-YQHYYRILYGELGCG-NH2; thioether N-14), the IC50 is greater than 30000 nM.

The compound `CC[C@H](C)[C@@H]1NC(=O)[C@H](CCCNC(=N)N)NC(=O)[C@H](Cc2ccc(O)cc2)NC(=O)[C@H](Cc2ccc(O)cc2)NC(=O)[C@H](Cc2c[nH]cn2)NC(=O)[C@H](CCCNC(=N)N)NC(=O)[C@H](Cc2ccc(O)cc2)NC(=O)CSC[C@@H](C(=O)NCC(N)=O)NC(=O)CNC(=O)[C@H](CC(C)C)NC(=O)[C@H](CCC(=O)O)NC(=O)CNC(=O)[C@H](Cc2ccc(O)cc2)NC(=O)[C@H](CC(C)C)NC1=O` ({CH2CO}-YRHYYRILYGELGCG-NH2; thioether N-14) returned an IC50 greater than 30000 nM.

As to `CC[C@H](C)[C@@H]1NC(=O)[C@@H]2CCCN2C(=O)[C@H](CCCNC(=N)N)NC(=O)[C@H](Cc2c[nH]c3ccccc23)NC(=O)[C@H](Cc2ccccc2)NC(=O)[C@H](CC(N)=O)NC(=O)[C@@H]2CCCN2C(=O)[C@H](Cc2ccccc2)NC(=O)[C@H](Cc2c[nH]c3ccccc23)NC(=O)[C@H](Cc2ccc(O)cc2)NC(=O)CSC[C@@H](C(=O)NCC(N)=O)NC(=O)[C@H](CC(N)=O)NC1=O` ({CH2CO}-YWFPNFWRPINCG-NH2; thioether N-12), the IC50 was greater than 30000 nM.

`CC[C@H](C)[C@@H]1NC(=O)[C@H](Cc2c[nH]c3ccccc23)NC(=O)[C@H](CC(N)=O)NC(=O)[C@H](Cc2ccc(O)cc2)NC(=O)[C@H](Cc2ccc(O)cc2)NC(=O)CSC[C@@H](C(=O)NCC(N)=O)NC(=O)[C@H](CO)NC(=O)[C@H]([C@@H](C)O)NC(=O)[C@H](CC(N)=O)NC(=O)[C@H](Cc2ccc(O)cc2)NC(=O)[C@H](Cc2ccc(O)cc2)NC(=O)[C@H](Cc2ccccc2)NC(=O)[C@H](Cc2c[nH]cn2)NC(=O)[C@H](CC(=O)O)NC1=O` ({CH2CO}-YYNWIDHFYYNTSCG-NH2; thioether N-14) registered an IC50 greater than 30000 nM.

As for `CC(C)C[C@@H]1NC(=O)[C@H](C)NC(=O)[C@H](Cc2ccc(O)cc2)NC(=O)[C@H](Cc2ccc(O)cc2)NC(=O)[C@H](Cc2ccc(O)cc2)NC(=O)[C@H](CC(C)C)NC(=O)[C@H](Cc2ncc[nH]2)NC(=O)[C@H](Cc2ccc(O)cc2)NC(=O)CSC[C@@H](C(=O)NCC(N)=O)NC(=O)CNC(=O)[C@H](CC(C)C)NC(=O)[C@H](CC(N)=O)NC(=O)CNC(=O)[C@H](Cc2ccc(O)cc2)NC1=O` ({CH2CO}-Y[Ala(imidazol-2-yl)]LYYYALYGNLGCG-NH2; thioether N-14), the IC50 was 11.8 nM.
